Data on 17 compounds can be found in US8293738B2, “Indazole inhibitors of kinase” (Abbott Laboratories, priority 2010, dated 2012).

The structures appear in SMILES notation.

Assay [1] deals with T1, Aurora B (Homo sapiens, UniProt Q96GD4).
T1 construct: Active Aurora B enzyme (recombinant residues 1-344)
As to the kind of experiment: Aurora B enzyme assay (time-resolved fluorescence, histone H3 peptide). Particulars: 1 mM ATP, 1 hour. It counts as biochemical. The protocol: To determine Aurora B activity of representative compounds of the invention, Active Aurora B enzyme (recombinant residues 1-344) and INCENP (recombinant GST fusion protein (Upstate)) were incubated in wells of a 384 well plate with biotinylted histone H3 peptide residues 1-21 (Upstate), 1 mM ATP, and various concentrations of inhibitors in a HEPES buffer, pH 7.4 containing MgCl2, sodium othrovanadate, and Triton X-100. After 1 hour, the reaction was stopped with EDTA and anti-phospho-histone H3 Europium Cryptate (Cis-Bio) and SA-APC (Phycolink, Prozyme) were added to detect the phosphopeptide. The amount of phosphorylation was determined by the time-resolved fluorescence ratio of signals at 665 nm and 615 nm. The IC50's were calculated by an exponential fit of the inhibition values with the inhibitor concentrations using Assay Explorer software.

The target of assay [2] is T2, Aurora A (Homo sapiens, UniProt O14965).
T2 sequence (O14965 1-403): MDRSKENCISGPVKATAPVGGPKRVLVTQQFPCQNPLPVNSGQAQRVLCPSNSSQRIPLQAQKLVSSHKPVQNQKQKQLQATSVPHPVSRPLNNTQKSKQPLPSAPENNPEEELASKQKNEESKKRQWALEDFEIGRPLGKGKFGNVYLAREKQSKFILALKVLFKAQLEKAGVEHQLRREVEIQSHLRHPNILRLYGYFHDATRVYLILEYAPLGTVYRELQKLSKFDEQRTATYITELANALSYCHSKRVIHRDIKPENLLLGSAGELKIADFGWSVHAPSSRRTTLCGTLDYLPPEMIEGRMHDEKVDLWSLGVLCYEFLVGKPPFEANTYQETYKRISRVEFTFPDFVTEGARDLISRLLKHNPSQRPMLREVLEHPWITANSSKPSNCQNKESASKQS
As to the kind of experiment: Aurora A enzyme assay (time-resolved fluorescence, STK substrate-2). It counts as biochemical. Particulars: 1 mM ATP, 1 hour. The protocol: To determine Aurora A and C activity of representative compounds of the invention, Active Aurora A or C enzyme was incubated in wells of a 384 well plate with biotinylated STK substrate-2 (Upstate), 1 mM ATP, and various concentrations of inhibitors in a Hepes buffer, pH 7.4 containing MgCl2, sodium othrovanadate, and Triton X-100. After 1 hour, the reaction was stopped with EDTA and anti-phospho-STK antibody Europium Cryptate (Upstate) and SA-XL665 (Upstate) were added to detect the phosphopeptide. The amount of phosphorylation was determined by the time-resolved fluorescence ratio of signals at 665 nm and 615 nm. The IC50s were calculated by an exponential fit of the inhibition values with the inhibitor concentrations using Assay Explorer software.

For assay [3], the target named is T3, KDR (Homo sapiens, UniProt P35968). As to the kind of experiment: KDR cell assay. It counts as cell-based.
Target sequence in this assay (P35968 20-1356, species assumed): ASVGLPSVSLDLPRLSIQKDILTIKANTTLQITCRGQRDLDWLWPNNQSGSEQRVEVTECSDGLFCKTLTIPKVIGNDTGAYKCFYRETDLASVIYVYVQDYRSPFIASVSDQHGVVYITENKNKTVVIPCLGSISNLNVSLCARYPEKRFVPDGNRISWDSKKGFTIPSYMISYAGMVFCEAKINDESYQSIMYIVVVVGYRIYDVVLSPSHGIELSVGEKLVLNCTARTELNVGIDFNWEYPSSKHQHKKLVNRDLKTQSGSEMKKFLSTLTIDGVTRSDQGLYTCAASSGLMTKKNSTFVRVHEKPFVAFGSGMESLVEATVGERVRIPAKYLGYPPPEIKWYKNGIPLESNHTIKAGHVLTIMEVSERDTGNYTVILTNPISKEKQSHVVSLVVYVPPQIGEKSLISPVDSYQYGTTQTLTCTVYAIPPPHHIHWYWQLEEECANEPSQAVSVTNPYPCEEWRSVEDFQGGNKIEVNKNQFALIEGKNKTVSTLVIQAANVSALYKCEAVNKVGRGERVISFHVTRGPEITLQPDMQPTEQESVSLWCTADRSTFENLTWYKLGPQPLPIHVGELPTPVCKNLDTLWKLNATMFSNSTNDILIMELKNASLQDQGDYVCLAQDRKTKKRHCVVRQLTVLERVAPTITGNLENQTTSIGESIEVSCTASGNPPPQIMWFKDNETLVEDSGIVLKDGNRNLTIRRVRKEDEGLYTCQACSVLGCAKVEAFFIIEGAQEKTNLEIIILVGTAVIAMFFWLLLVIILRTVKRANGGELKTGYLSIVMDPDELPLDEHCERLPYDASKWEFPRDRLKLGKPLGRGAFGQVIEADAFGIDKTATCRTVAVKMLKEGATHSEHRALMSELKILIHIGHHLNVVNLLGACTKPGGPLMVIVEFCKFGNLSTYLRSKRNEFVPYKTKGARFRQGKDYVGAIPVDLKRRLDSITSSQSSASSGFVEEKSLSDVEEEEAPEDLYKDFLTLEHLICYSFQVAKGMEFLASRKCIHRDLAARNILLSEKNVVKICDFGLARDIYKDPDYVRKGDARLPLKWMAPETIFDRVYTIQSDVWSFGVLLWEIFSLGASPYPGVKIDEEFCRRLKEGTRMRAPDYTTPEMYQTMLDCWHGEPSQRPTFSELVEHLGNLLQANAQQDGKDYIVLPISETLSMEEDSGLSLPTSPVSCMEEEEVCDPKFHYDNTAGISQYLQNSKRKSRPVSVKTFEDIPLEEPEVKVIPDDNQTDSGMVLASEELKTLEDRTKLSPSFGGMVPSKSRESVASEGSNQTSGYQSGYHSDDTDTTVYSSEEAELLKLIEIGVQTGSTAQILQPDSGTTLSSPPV
Assay [4] has as its system H1299 cells (Human Non-Small Cell Lung Carcinoma). As to the kind of experiment: Induction of polyploidy in H1299 cells, high content analysis. It counts as cell-based. Particulars: NCI-H1299 cells, 48 hours, polyploid = nuclear area >750μ2, read-out: Polyploid HCA IC50. The protocol: To determine the induction of polyploidy in H1299 cells (Human Non-Small Cell Lung Carcinoma), NCI-H1299 were seeded (4K/well) into 96-well culture plates (tissue culture grade, black, flat-clear bottom) and incubated overnight to produce cell-to-plate adherance Inhibitors at varying concentrations were added into duplicate wells containing cells and culture media (RPMI 1640, 10% fetal calf serum) and incubated at 37 C for 48 hours. The plates were then washed with PBS and the adherent cells fixed by incubating with 3% formalin for 1 hour. After washing four times with PBS, the cells were then stained with Hoechst and subjected to fluorescent (3601/460e) microscopic high content analysis to determine the effect of inhibitors on nuclear size. Polyploid cells (>4N) were defined as those having nuclear area >750μ2. […]

The target of assay [5] is T3, KDR. The experiment in a line: KDR HTRF in vitro kinase assay. In kind it is biochemical. Also on record: purified enzyme (His6-KDR 789-1354, MW 63 kD). As to conditions: 1 mM ATP, 60 minutes. The procedure: To determine the activity of the various kinases, a homogenous time-resolved fluorescence (HTRF) in vitro kinase assay was used. (Mathis, G., HTRF(R) Technology. J Biomol Screen, 1999. 4(6): p. 309-314; Alfred J. Kolb, Paul V. Kaplita, David J. Hayes, Young-Whan Park, Christine Pernell, John S. Major and Gerard Mathis, Drug Discovery Today, 1998, 3, 333-342.)
For example for KDR, 7 ng/well of purified enzyme (His6-KDR 789-1354, MW 63 kD) was mixed with 0.5 μM N-biotinylated substrate (Biotin-Ahx-AEEEYFFLA-amide (SEQ. ID. 1)), various concentrations of inhibitor in reaction buffer (50 mM HEPES, pH 7.1, mM MgCl2, 2 mM MnCl2, 0.1% BSA and 1 mM DTT, […] final volume), ATP (1 mM final conc.) in a black 384-well plate. After 60 minutes incubation at room temperature, the reaction was quenched by addition of a buffered EDTA solution (final approximate concentrations: 30 mM EDTA, 0.1% BSA, 0.1% Triton X-100 and 0.24M KF) and a solution of revelation agents (to give 0.084 ng/well streptavidin-XL-665 (Cis-Bio) and 6.5 ng/well antiphsophotyrosine mAb PT66-K Europium kryptate) was added to the reaction mixture. The quenched reaction was allowed to stand at room temperature for 3 hours and was then read in a time-resolved fluorescence detector (InVision, Perkin-Elmer) at 620 nm and 665 nm sequentially with excitation. The ratio between the signal of 620 nm and 665 nm was used in the calculation of the IC50.
Target sequence in this assay (P35968 789-1354): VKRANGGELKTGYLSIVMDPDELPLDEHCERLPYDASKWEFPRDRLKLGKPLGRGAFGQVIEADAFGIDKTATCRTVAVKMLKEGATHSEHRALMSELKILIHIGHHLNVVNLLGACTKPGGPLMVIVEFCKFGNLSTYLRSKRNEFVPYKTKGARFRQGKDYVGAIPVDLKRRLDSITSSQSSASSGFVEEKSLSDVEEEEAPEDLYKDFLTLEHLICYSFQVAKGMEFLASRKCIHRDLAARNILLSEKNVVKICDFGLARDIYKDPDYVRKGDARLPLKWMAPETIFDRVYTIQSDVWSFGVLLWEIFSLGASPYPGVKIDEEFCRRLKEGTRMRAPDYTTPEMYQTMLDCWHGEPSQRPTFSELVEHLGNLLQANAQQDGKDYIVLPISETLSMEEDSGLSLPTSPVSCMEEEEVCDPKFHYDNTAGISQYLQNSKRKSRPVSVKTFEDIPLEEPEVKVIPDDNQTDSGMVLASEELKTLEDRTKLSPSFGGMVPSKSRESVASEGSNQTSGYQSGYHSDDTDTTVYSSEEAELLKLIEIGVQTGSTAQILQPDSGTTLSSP

T1 sequence (Q96GD4 whole entry, the tested form may be a part): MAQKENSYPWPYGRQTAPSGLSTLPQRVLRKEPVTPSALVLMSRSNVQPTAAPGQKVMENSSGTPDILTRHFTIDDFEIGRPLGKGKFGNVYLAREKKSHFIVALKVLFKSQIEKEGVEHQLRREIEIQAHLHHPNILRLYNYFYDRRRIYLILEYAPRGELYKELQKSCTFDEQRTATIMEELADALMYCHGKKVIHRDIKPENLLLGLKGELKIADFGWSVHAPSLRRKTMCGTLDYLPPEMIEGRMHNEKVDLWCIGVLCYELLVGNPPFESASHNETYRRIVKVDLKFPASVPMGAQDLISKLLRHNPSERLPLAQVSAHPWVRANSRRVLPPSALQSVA
T1 sequence (Q9NQS7 826-918 partner limits assumed): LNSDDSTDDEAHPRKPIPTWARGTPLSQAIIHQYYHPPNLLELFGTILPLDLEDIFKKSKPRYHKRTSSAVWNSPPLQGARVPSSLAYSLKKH

As for `Cn1cc(-c2n[nH]c3cc(-c4ccc(NC(=O)Nc5cccc(F)c5)cc4)ccc23)cn1` [Example 1, N-(3-fluorophenyl)-N′-{4-[3-(1-methyl-1H-pyrazol-4-yl)-1H-indazol-6-yl]phenyl}urea], the IC50 (in general, the concentration at which inhibition is half-maximal) in assay [1] was 19.2 nM; in assay [2] it was 371 nM; in assay [3], 87.1 nM; in assay [4], 1 nM; in assay [5] it was 54.9 nM.

As to `Cc1cccc(NC(=O)Nc2ccc(-c3ccc4c(-c5cnn(C)c5)n[nH]c4c3)cc2)c1` [Example 2, N-(3-methylphenyl)-N′-{4-[3-(1-methyl-1H-pyrazol-4-yl)-1H-indazol-6-yl]phenyl}urea], the IC50 in assay [1] is 17 nM; in assay [2], over 12500 nM; in assay [3], 46 nM; in assay [4] it was 6 nM; in assay [5], 27.4 nM.

Turning to `Cc1cccc(NC(=O)Nc2ccc(-c3ccc4c(-c5cnn[nH]5)n[nH]c4c3)cc2)c1` [Example 3, N-(3-methylphenyl)-N′-{4-[3-(1H-1,2,3-triazol-5-yl)-1H-indazol-6-yl]phenyl}urea], the IC50 in assay [1] turned out to be 40.5 nM; in assay [2] it was 2490 nM; in assay [3], 316 nM; in assay [4] it was 35 nM; in assay [5], 45 nM.

For the compound `O=C(Nc1ccc(-c2ccc3c(-c4ccn[nH]4)n[nH]c3c2)cc1)Nc1cccc(F)c1` [Example 8, N-(3-fluorophenyl)-N′-{4-[3-(1H-pyrazol-5-yl)-1H-indazol-6-yl]phenyl}urea], the IC50 in assay [1] is 23.3 nM; in assay [2], 3400 nM; in assay [4], 12 nM; in assay [5] it was 525 nM.

Consider `Cn1cc(-c2n[nH]c3cc(-c4ccc(NC(=O)Nc5ccc(C(F)(F)F)cc5)cc4)ccc23)cn1` [Example 19, N-{4-[3-(1-methyl-1H-pyrazol-4-yl)-1H-indazol-6-yl]phenyl}-N′-[4-(trifluoromethyl)phenyl]urea], for which the IC50 in assay [1] is 108 nM; in assay [2], 10800 nM; in assay [3] it was 216 nM; in assay [5], 45.1 nM.

As to `Cn1cc(-c2n[nH]c3cc(-c4ccc(NC(=O)Nc5ccc(Cl)cc5)cc4)ccc23)cn1` [Example 20, N-(4-chlorophenyl)-N′-{4-[3-(1-methyl-1H-pyrazol-4-yl)-1H-indazol-6-yl]phenyl}urea], the IC50 in assay [1] is 24.7 nM; in assay [2], over 12500 nM; in assay [4], under 1 nM; in assay [5], 122 nM.

For the compound `O=C(Nc1ccc(-c2ccc3c(-c4cnn[nH]4)n[nH]c3c2)cc1)Nc1cccc(F)c1` [Example 21, N-(3-fluorophenyl)-N′-{4-[3-(1H-1,2,3-triazol-5-yl)-1H-indazol-6-yl]phenyl}urea], the IC50 stood at 58.3 nM in assay [1], 10200 nM in assay [2], 128 nM in assay [4] and 154 nM in assay [5].

For `Cn1cc(-c2n[nH]c3cc(-c4ccc(NC(=O)Nc5ccccc5C(F)(F)F)cc4)ccc23)cn1` [Example 26, N-{4-[3-(1-methyl-1H-pyrazol-4-yl)-1H-indazol-6-yl]phenyl}-N′-[2-(trifluoromethyl)phenyl]urea], the IC50 in assay [1] is 62.3 nM; in assay [2] it was over 12500 nM; in assay [4] it was 13 nM; in assay [5], 325 nM.

For `Cn1cc(-c2n[nH]c3cc(-c4ccc(NC(=O)Nc5ccccc5OC(F)(F)F)cc4)ccc23)cn1` [Example 27, N-{4-[3-(1-methyl-1H-pyrazol-4-yl)-1H-indazol-6-yl]phenyl}-N′-[2-(trifluoromethoxy)phenyl]urea], the IC50 is 773 nM in assay [1], over 12500 nM in assay [2] and 97.6 nM in assay [5].

Consider `Cn1cc(-c2n[nH]c3cc(-c4ccc(NC(=O)Nc5ccc(OC(F)(F)F)cc5)cc4)ccc23)cn1` [Example 28, N-{4-[3-(1-methyl-1H-pyrazol-4-yl)-1H-indazol-6-yl]phenyl}-N′-[4-(trifluoromethoxy)phenyl]urea], for which the IC50 in assay [1] was 871 nM; in assay [2], over 12500 nM; in assay [5] it was 38 nM.

Take `Cn1cc(-c2n[nH]c3cc(-c4cccc(CNC(=O)Nc5cccc(F)c5)c4)ccc23)cn1` [Example 29, N-(3-fluorophenyl)-N′-{3-[3-(1-methyl-1H-pyrazol-4-yl)-1H-indazol-6-yl]benzyl}urea]: the IC50 is 25 nM in assay [1], 3340 nM in assay [2], 113 nM in assay [4] and 137 nM in assay [5].

Take `Cn1cc(-c2n[nH]c3cc(-c4ccc(CNC(=O)c5cccc(F)c5)cc4)ccc23)cn1` [Example 31, 3-fluoro-N-{4-[3-(1-methyl-1H-pyrazol-4-yl)-1H-indazol-6-yl]benzyl}benzamide]: the IC50 in assay [1] came to 142 nM; in assay [2], 5210 nM; in assay [5] it was 1790 nM.

Turning to `Cc1cccc(NC(=O)Nc2ccc(-c3ccc4c(-c5ccccc5)n[nH]c4c3)cc2)c1` [Example 32, N-(3-methylphenyl)-N′-[4-(3-phenyl-1H-indazol-6-yl)phenyl]urea], the IC50 was 1920 nM in assay [1], over 12500 nM in assay [2] and 3610 nM in assay [5].

Turning to `Cc1cccc(NC(=O)Nc2ccc(-c3ccc4c(-c5cccnc5)n[nH]c4c3)cc2)c1` [Example 33, N-(3-methylphenyl)-N′-[4-(3-pyridin-3-yl-1H-indazol-6-yl)phenyl]urea], the IC50 in assay [1] is 120 nM; in assay [2] it was over 12500 nM; in assay [5], 584 nM.

In the case of `Cc1cccc(NC(=O)Nc2cccc(-c3ccc4c(-c5cccnc5)n[nH]c4c3)c2)c1` [Example 34, N-(3-methylphenyl)-N′-[3-(3-pyridin-3-yl-1H-indazol-6-yl)phenyl]urea], the figures for the IC50 in assay [1], in assay [2] and in assay [5] were over 12500 nM, over 12500 nM and 278 nM, respectively.

In the case of `Cc1cccc(NC(=O)Nc2ccc(-c3ccc4c(-c5cscn5)n[nH]c4c3)cc2)c1` [Example 35, N-(3-methylphenyl)-N′-{4-[3-(1,3-thiazol-4-yl)-1H-indazol-6-yl]phenyl}urea], the IC50 in assay [1] was 569 nM; in assay [2] it was over 12500 nM; in assay [5], 558 nM.

Take `Cc1cccc(NC(=O)Nc2ccc(-c3ccc4c(-c5cc6ccccc6[nH]5)n[nH]c4c3)cc2)c1` [Example 36, N-{4-[3-(1H-indol-2-yl)-1H-indazol-6-yl]phenyl}-N′-(3-methylphenyl)urea]: the IC50 in assay [1] was over 12500 nM; in assay [2], over 12500 nM; in assay [5] it was 303 nM.
